PubChem BioAssay AID192 (DTP/NCI, 2004)
Values joined by “and” are separate entries in the source; they are usually repeats but may differ in a detail not shown here. Equal entries are not always repeated. Toxic doses and inconclusive results are not listed.

Test system: BDF1 mice, B16 melanoma ip, median survival T/C
Assay: NCI In Vivo Anticancer Drug Screen. Data for tumor model B16 Melanoma (intraperitoneal) in B6D2F1 (BDF1) mice
Details: endpoint: median survival time, higher = longer survival
In short: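 Read-out: survival or tumor size, given as treated/control ratio. Controls received vehicle only; animals bore transplantable tumors.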

[1] = dose: 25.0 mg/kg/injection, schedule: Q01DX009 (ip), vehicle: saline
[2] = dose: 50.0 mg/kg/injection, schedule: Q01DX009 (ip), vehicle: saline
[3] = dose: 100.0 mg/kg/injection, schedule: Q01DX009 (ip), vehicle: saline

**Q.** Which results are given for `COC1C(O)CC(OC2CC(Oc3cc4cc5c(c(O)c4c(O)c3C)C(=O)[C@@H](OC3CC(OC4CC(OC6CC(C)(O)C(OC(C)=O)C(C)O6)C(O)C(C)O4)C(O)C(C)O3)[C@H]([C@H](OC)C(=O)[C@@H](O)[C@@H](C)O)C5)OC(C)C2OC(C)=O)OC1C` (stereo partly drawn)?
**A.** T/C (dose: 0.01 mg/kg/injection, schedule: Q01DX009 (ip), vehicle: Klucel (hydroxypropylcellulose) (HPC)): 111 % of control; T/C (dose: 0.02 mg/kg/injection, schedule: Q01DX009 (ip), vehicle: Klucel (hydroxypropylcellulose) (HPC)): 111 % of control; T/C (dose: 0.02 mg/kg/injection, schedule: Q01DX009 (ip), vehicle: saline): 167 % of control; T/C (dose: 0.03 mg/kg/injection, schedule: Q01DX009 (ip), vehicle: saline): 152 % of control; T/C (dose: 0.04 mg/kg/injection, schedule: Q01DX009 (ip), vehicle: Klucel (hydroxypropylcellulose) (HPC)): 123 % of control; T/C (dose: 0.04 mg/kg/injection, schedule: Q01DX009 (ip), vehicle: saline): 175 % of control; T/C (dose: 0.07 mg/kg/injection, schedule: Q01DX009 (ip), vehicle: saline): 161 % of control; T/C (dose: 0.08 mg/kg/injection, schedule: Q01DX009 (ip), vehicle: saline): 154 % of control; T/C (dose: 0.13 mg/kg/injection, schedule: Q01DX009 (ip), vehicle: saline): 150 % of control; T/C (dose: 0.16 mg/kg/injection, schedule: Q01DX009 (ip), vehicle: Klucel (hydroxypropylcellulose) (HPC)): 150 % of control and 157 % of control; T/C (dose: 0.16 mg/kg/injection, schedule: Q01DX009 (ip), vehicle: saline): 152 % of control; T/C (dose: 0.25 mg/kg/injection, schedule: Q01DX009 (ip), vehicle: saline): 152 % of control; T/C (dose: 0.32 mg/kg/injection, schedule: Q01DX009 (ip), vehicle: saline): 94 % of control; T/C (dose: 3.8 micrograms/kg/injection, schedule: Q01DX009 (ip), vehicle: water): 111 % of control; T/C (dose: 7.5 micrograms/kg/injection, schedule: Q01DX009 (ip), vehicle: water): 109 % of control; T/C (dose: 15.0 micrograms/kg/injection, schedule: Q01DX009 (ip), vehicle: Klucel (hydroxypropylcellulose) (HPC)): 109 % of control; T/C (dose: 15.0 micrograms/kg/injection, schedule: Q01DX009 (ip), vehicle: saline): 94 % of control; T/C (dose: 30.0 micrograms/kg/injection, schedule: Q01DX009 (ip), vehicle: Klucel (hydroxypropylcellulose) (HPC)): 96 % of control; T/C (dose: 30.0 micrograms/kg/injection, schedule: Q01DX009 (ip), vehicle: saline): 88 % of control; T/C (dose: 30.0 micrograms/kg/injection, schedule: Q01DX009 (ip), vehicle: water): 159 % of control; T/C (dose: 60.0 micrograms/kg/injection, schedule: Q01DX009 (ip), vehicle: saline): 100 % of control; T/C (dose: 120.0 micrograms/kg/injection, schedule: Q01DX009 (ip), vehicle: Klucel (hydroxypropylcellulose) (HPC)): 109 % of control; T/C (dose: 120.0 micrograms/kg/injection, schedule: Q01DX009 (ip), vehicle: saline): 94 % of control; T/C (dose: 240.0 micrograms/kg/injection, schedule: Q01DX009 (ip), vehicle: saline): 100 % of control

**Q.** Which T/C (dose: 0.75 mg/kg/injection, schedule: Q01DX009 (ip), vehicle: saline with Tween-80) does the source give for `O=C(CC1(Cl)C(F)(F)C(F)(F)C1(F)F)c1ccccc1` here?
**A.** Its T/C is 100 % of control.

**Q.** What about the T/C (dose: 1.5 mg/kg/injection, schedule: Q01DX009 (ip), vehicle: saline with Tween-80) of the same compound?
**A.** Its T/C is 100 % of control.

**Q.** And the T/C (dose: 3.0 mg/kg/injection, schedule: Q01DX009 (ip), vehicle: saline with Tween-80)?
**A.** The T/C was 95 % of control.

**Q.** What about the T/C (dose: 4.0 mg/kg/injection, schedule: Q04DX003 (ip), vehicle: saline) of the same compound?
**A.** The T/C was 100 % of control.

**Q.** And the T/C (dose: 12.5 mg/kg/injection, schedule: Q01DX009 (ip), vehicle: saline with Tween-80)?
**A.** Its T/C is 90 % of control.

**Q.** What about the T/C (dose: 25.0 mg/kg/injection, schedule: Q04DX003 (ip), vehicle: saline with Tween-80) of the same compound?
**A.** The T/C was 102 % of control.

**Q.** For `O=C1NC(O)CCN1C1OC(CO)C(O)C1O` (stereo not drawn), which T/C [1] is on record?
**A.** Its T/C is 111 % of control and 124 % of control.

**Q.** What about the T/C [2] of the same compound?
**A.** Its T/C is 110 % of control and 121 % of control.

**Q.** And the T/C [3]?
**A.** The T/C was 102 % of control and 106 % of control.

**Q.** And the T/C (dose: 200.0 mg/kg/injection, schedule: Q01DX009 (ip), vehicle: saline)?
**A.** Its T/C is 96 % of control and 120 % of control.

**Q.** What about the T/C (dose: 400.0 mg/kg/injection, schedule: Q01DX009 (ip), vehicle: saline) of the same compound?
**A.** The T/C was 106 % of control and 118 % of control.

**Q.** What about the T/C (dose: 800.0 mg/kg/injection, schedule: Q01DX009 (ip), vehicle: saline) of the same compound?
**A.** Its T/C is 105 % of control and 107 % of control.

**Q.** Which T/C (dose: 100.0 mg/kg/injection, schedule: Q01DX009 (ip), vehicle: saline with Tween-80) does the source give for `Cn1nnnc1N/N=C/c1ccccc1` here?
**A.** The T/C was 93 % of control.

**Q.** And the T/C (dose: 200.0 mg/kg/injection, schedule: Q01DX009 (ip), vehicle: saline with Tween-80)?
**A.** The T/C was 95 % of control.

**Q.** What about the T/C (dose: 400.0 mg/kg/injection, schedule: Q01DX009 (ip), vehicle: saline with Tween-80) of the same compound?
**A.** The T/C was 90 % of control.

**Q.** Which T/C (dose: 12.5 mg/kg/injection, schedule: Q01DX009 (ip), vehicle: saline) does the source give for `OC(c1ccccc1)(c1ccccc1)C1CC1c1ccncc1` (stereo not drawn) here?
**A.** The T/C was 113 % of control.

**Q.** What about the T/C [1] of the same compound?
**A.** Its T/C is 95 % of control.

**Q.** And the T/C [2]?
**A.** The T/C was 102 % of control.

**Q.** And the T/C [3]?
**A.** The T/C was 107 % of control.
